Laboratory results: patent US20190300573A1, “HUMAN MYOSIN PEPTIDES” (APITOPE INTERNATIONAL NV, priority 2016, published 2019)

Columns and labels:
EAM induced DR4 mice [1] = test: Histopathological analysis of myocarditis (H&E inflammatory cell infiltrate); assay type: in vivo; conditions: EAM induction, p=0.0079, Fisher's exact test
Experimental: (§1) Appropriate amount of myosin extract was diluted to the desired volume with PBS, then mixed with equal volume of complete Freund's adjuvant (CFA; Difco) containing 8 mg/ml of heat-killed Mycobacterium Tuberculosis (hkMTB; Difco). The mixture was sonicated for 20 min, then mixed well by a 1 ml syringe until the emulsion became very thick and viscous. 100 μl of the emulsion was applied subcutaneously from tail base at a dose of 100 μg myosin/mouse. On day 0 and 2, 200 ng Pertussis toxin (Sigma Aldrich) in 0.5 ml of PBS was intraperitoneally injected to each mouse as a second adjuvant. In the first trial, the myosin and Pertussis toxin injections were repeated after a week. However, this second set of injections was excluded in later experiments to avoid induction of a too severe disease that might obscure any benefit of the peptide therapy. Control groups received PBS in hkMTB-boosted CFA (but without human cardiac myosin) as well as Pertussis toxin. The development of EAM was assessed by echocardiographic and histopathological measurements after 3 weeks from myosin injection. Spleens were collected to measure cardiac myosin responsive T cell proliferation. Bloods were collected to measure circulating anti-myosin antibody levels.
The heart was dissected and fixed for 24 hours in 10% (v/v) formalin in PBS for histological analyses. […]

[2] = tested on: cardiac myosin responsive T cell proliferation; test: Anti-myosin T cell proliferation of splenocytes from EAM DR4 mice; assay type: in vivo; conditions: EAM induction, FIG. 3
Experimental: as §1, with “However, this second set of injections was excluded in later experiments to avoid induction of a too severe disease that might obscure any benefit of the peptide therapy. Control groups received PBS in hkMTB-boosted CFA (but without human cardiac myosin) as well as Pertussis toxin.” left out, “Spleens were collected to measure cardiac myosin responsive T cell proliferation. Bloods were collected to measure circulating anti-myosin antibody levels.” left out
The splenocytes obtained from myosin immunised mice (as described herein) were cultured in 96 well plates in X-Vivo 15 media (Lonza) at a concentration of 5×10^5 cells/well. […] Finally, the cells were kept at −20 C.° at least overnight until ready to harvest. […]
(§2) 2 different combinations of peptides were used for the therapy. […] Mice were terminated 3 weeks after the myosin injection and disease development and adaptive immune responses against cardiac myosin were assessed.

EAM induced DR4 mice [3] = test: Echocardiographic analysis of left ventricle function in EAM DR4 mice; assay type: in vivo; conditions: n=5
Experimental: as §1
At the end of the 3 week experiment, the mice were anesthetised by intraperitoneal injection of Tribromoethanol (Avertin; SigmaAldrich) at a dose of 250 mg/kg. The left ventricle functions and diameters were analysed using Vevo 770 high-frequency, high-resolution echocardiography system (Visual Sonics) just before terminating the mice. The anesthetised mice were laid supine and butted to a heated platform by surgical tape stripes. Chest hair were removed by applying hair removal cream and Aquasonic Clear ultrasound transmission gel (Parker Laboratories) was applied to the hairless chest. […]
as §2

[4] = tested on: α-myosin sensitized splenic cells; test: Testing the antigenicity of T cell epitopes (stimulation index, 3H-thymidine incorporation); assay type: cell-based, DR4 mice; conditions: for stimulation index: 3H-thymidine incorporation, peptides 30, 3 and 0.3 μg/ml, screening repeated three times, FIG. 8; for stimulation at the lowest concentration: 0.3 μg/ml
Experimental: The antigenicity of predicted peptides was assessed T cell proliferation against human cardiac myosin was measured by comparison of their stimulation index determined by 3H-thymidine incorporation assay (in brief: cells were pulsed with ^3H-Thymidine for 18 hours at the same conditions by adding 25 μl of diluted ^3H-Tymidine solution in RPMI to each well (final concentration 0.5 μCi/well). Finally, the cells were kept at −20 C.° at least overnight until ready to harvest. After thawing the plates, the cells were harvested onto glass fibre filters (Cox Scientific) using a Combo Cell Harvester (Skatron). Then the filters were soaked in Betaplate Scint liquid scintillation cocktail (Perkin Elmer) and sealed into sample bags (Perkin Elmer). Finally, the sealed bags containing the filters were placed into cassettes and the amount of scintillation was read using 1450 Microbeta Liquid Scintillation Counter (Perkin Elmer) in order to determine the level of ^3H-tymidine incorporation.). The α-myosin sensitized splenic cells were challenged with each peptide (GenScript (USA), peptide concentrations were 30, 3 and 0.3 μg/ml) or whole myosin (30 μg/ml).

[5] = tested on: circulating anti-myosin antibodies; test: ELISA of circulating anti-myosin antibody levels in EAM DR4 mice; assay type: in vivo; conditions: EAM induction, n=5
Experimental: as §1, with “Spleens were collected to measure cardiac myosin responsive T cell proliferation. Bloods were collected to measure circulating anti-myosin antibody levels.” left out
After incubation with the alkaline phosphatase-conjugated antibodies, once again the plates were washed four times with PBST. […] Once the colour developed, the reaction was stopped by adding 50 μL of 2M NaOH (Sigma, UK) and the absorbance was measured using LT-5000MS ELISA Reader (Labtech) at a wavelength of 405 nm. […]

DR4 mice = assay type: in vivo; conditions: first trial, myosin and Pertussis toxin injections repeated after a week; after 3 weeks
Experimental: as §1, with “However, this second set of injections was excluded in later experiments to avoid induction of a too severe disease that might obscure any benefit of the peptide therapy. Control groups received PBS in hkMTB-boosted CFA (but without human cardiac myosin) as well as Pertussis toxin.” left out, “Spleens were collected to measure cardiac myosin responsive T cell proliferation. Bloods were collected to measure circulating anti-myosin antibody levels.” left out
In our first trial, it was planned to follow disease progression using echocardiography at 3 and 6 weeks. However, sudden death occurred in 3 out of 5 mice in the α-myosin treated group after 3 weeks, whereas the animals in the control group were all healthy and no signs of myocarditis were detected in their hearts by echocardiographic measurements (data not shown). […]
Body weights of the mice were measured before the induction of EAM and at termination. […]

## Whole myosin: myosin extracted from human heart left ventricular wall; immunogen for EAM induction and stimulus in proliferation assays
EAM induced DR4 mice [1]
  mice with inflammation and tissue damage in the heart: 5 out of 5
[2]; 100 μg myosin in CFA + Pertussis toxin, vs control group with CFA and Pertussis toxin only
  increase in T cell proliferation against cardiac myosin: 5-6 fold
[2]; myosin 0.2, 2.0, 20 μg/ml in culture, n=5
  anti-myosin T cell proliferation: increased
EAM induced DR4 mice [3]; EAM induction vs control with only CFA and Pertussis toxin, p=0.003
  percentage of ejection fraction: significant decrease
EAM induced DR4 mice [3]; EAM induction vs control with only CFA and Pertussis toxin, p=0.006
  fractional shortening: significant decrease
EAM induced DR4 mice [3]; EAM induction, p=0.039, FIG. 6B
  left ventricle systolic dimension: significant increase
[4]; second screening assay
  stimulation: 2 fold
[5]; pmax=0.0008, FIG. 4A
  circulating anti-myosin IgG1 levels: increased significantly
[5]; pmax=0.02, FIG. 4B
  circulating anti-myosin IgG2c levels: significantly increased
DR4 mice
  sudden death: 3 out of 5

## VNPYKWLPVYNAEVV (T cell epitope peptide)
[4]
  stimulation index: stronger stimulation than the rest of them

## YHIFYQILSNKKPEL (T cell epitope peptide) [YL]
[4]
  stimulation index: consistently the strongest stimulation amongst the peptides
[4]; second screening assay
  stimulation at the lowest concentration: provided stimulation even at the lowest concentration

## PHIFSISDNAYQYML (T cell epitope peptide) [PL]
[4]
  stimulation index: stronger stimulation than the rest of them
[4]; second screening assay
  stimulation at the lowest concentration: provided stimulation even at the lowest concentration
